Assays:
Namalwa cells = experiment: Cell proliferation assay (3H-thymidine incorporation); type: cell-based; details: procedures substantially similar to Section 5.10
Procedure: Cell lines Namalwa, MUTZ-5, and UT-7 are obtained from the Deutsche Sammlung von Mikroorganismen und Zellkulturen GmbH (Braunschweig, Germany). The cell line KG-1 is obtained from the American Type Culture Collection (Manassas, Va., USA). Cell proliferation as indicated by ^3H-thymidine incorporation is measured in all cell lines as follows.
Cells are plated in 96-well plates at 6000 cells per well in media. The cells are pre-treated with compounds at about 100, 10, 1, 0.1, 0.01, 0.001, 0.0001 and 0 M in a final concentration of about 0.25% DMSO in triplicate at 37° C. in a humidified incubator at 5% CO2 for 72 hours. One microcurie of ^3H-thymidine (Amersham) is then added to each well, and cells are incubated again at 37 C in a humidified incubator at 5% CO2 for 6 hours. The cells are harvested onto UniFilter GF/C filter plates (Perkin Elmer) using a cell harvester (Tomtec), and the plates are allowed to dry overnight. Microscint 20 (Packard) (25 ÿl/well) is added, and plates are analyzed in TopCount NXT (Packard). Each well is counted for one minute. Percent inhibition of cell proliferation is calculated by averaging all triplicates and normalizing to the DMSO control (0% inhibition). Each compound is tested in each cell line in three separate experiments. Final IC50s are calculated using non-linear regression, sigmoidal dose-response, constraining the top to 100% and bottom to 0%, allowing variable slope. (GraphPad Prism v3.02).

TNFα = TNFα Inhibition Assay in PMBC (LPS-stimulated, ELISA); type: cell-based, human; details: LPS-stimulated PBMC; procedures substantially similar to Section 5.10
Procedure: Peripheral blood mononuclear cells (PBMC) from normal donors are obtained by Ficoll Hypaque (Pharmacia, Piscataway, N.J., USA) density centrifugation. Cells are cultured in RPMI 1640 (Life Technologies, Grand Island, N.Y., USA) supplemented with 10% AB+human serum (Gemini Bio-products, Woodland, Calif., USA), 2 mM L-glutamine, 100 U/ml penicillin, and 100 µg/ml streptomycin (Life Technologies).
PBMC (2×10^5 cells) are plated in 96-well flat-bottom Costar tissue culture plates (Corning, N.Y., USA) in triplicate. Cells are stimulated with LPS (from Salmonella abortus equi, Sigma cat. no. L-1887, St. Louis, Mo., USA) at 1 ng/ml final in the absence or presence of compounds. Compounds provided herein are dissolved in DMSO (Sigma) and further dilutions are done in culture medium immediately before use. The final DMSO concentration in all assays can be about 0.25%. Compounds are added to cells 1 hour before LPS stimulation. Cells are then incubated for 18-20 hours at 37° C. in 5% CO2, and supernatants are then collected, diluted with culture medium and assayed for TNF levels by ELISA (Endogen, Boston, Mass., USA). IC50s are calculated using non-linear regression, sigmoidal dose-response, constraining the top to 100% and bottom to 0%, allowing variable slope (GraphPad Prism v3.02).

IL-2 = IL-2 production by T cells (anti-CD3 stimulated, ELISA); type: cell-based, human; details: procedures substantially similar to Section 5.10
Procedure: PBMC are depleted of adherent monocytes by placing 1×10^8 PBMC in 10 ml complete medium (RPMI 1640 supplemented with 10% heat-inactivated fetal bovine serum, 2 mM L-glutamine, 100 U/ml penicillin, and 100 µg/ml streptomycin) per 10 cm tissue culture dish, in 37 C, 5% CO2 incubator for 30-60 minutes. The dish is rinsed with medium to remove all non-adherent PBMC. T cells are purified by negative selection using the following antibody (Pharmingen) and Dynabead (Dynal) mixture for every 1×10^8 non-adherent PBMC: 0.3 ml Sheep anti-mouse IgG beads, 15 1 anti-CD16, 15 1 anti-CD33, 15 1 anti-CD56, 0.23 ml anti-CD19 beads, 0.23 ml anti-HLA class II beads, and 56 1 anti-CD14 beads. The cells and bead/antibody mixture is rotated end-over-end for 30-60 minutes at 4 C. Purified T cells are removed from beads using a Dynal magnet. Typical yield is about 50% T cells, 87-95% CD3^+ by flow cytometry.
Tissue culture 96-well flat-bottom plates are coated with anti-CD3 antibody OKT3 at 5 μg/ml in PBS, 100 μl per well, incubated at 37° C. for 3-6 hours, then washed four times with complete medium 100 μl/well just before T cells are added. Compounds are diluted to 20 times of final in a round bottom tissue culture 96-well plate. Final concentrations are about 10 μM to about 0.00064 μM. A 10 mM stock of compounds provided herein is diluted 1:50 in complete for the first 20× dilution of 200 μM in 2% DMSO and serially diluted 1:5 into 2% DMSO. Compound is added at 10 μl per 200 l culture, to give a final DMSO concentration of 0.1%. Cultures are incubated at 37° C., 5% CO2 for 2-3 days, and supernatants analyzed for IL-2 and MIP-3 by ELISA (R&D Systems). IL-2 and MIP-3 levels are normalized to the amount produced in the presence of an amount of a compound provided herein, and EC50s calculated using non-linear regression, sigmoidal dose-response, constraining the top to 100% and bottom to 0%, allowing variable slope (GraphPad Prism v3.02).

Compound | ability to inhibit proliferation of Namalwa cells (activity range) (Namalwa cells) | ability to inhibit TNFα (activity range) (TNFα) | ability to stimulate IL-2 (activity range) (IL-2) | melting point
Nc1cccc2c1CN(C1CCC(=S)NC1=O)C2=S (stereo not shown) [3-(4-Amino-1-thioxo-1,3-dihydro-isoindol-2-yl)-6-thioxo-piperidin-2-one] | μM-mM | μM-mM | μM-mM | –
Nc1cccc2c1CN(C1CCC(=O)NC1=O)C2=S (stereo not shown) [3-(4-Amino-1-thioxo-1,3-dihydro-isoindol-2-yl)-piperidine-2,6-dione] | μM-mM | μM-mM | μM-mM | –
O=C1NC(=S)CCC1N1Cc2c(cccc2[N+](=O)[O-])C1=S (stereo not shown) [3-(4-Nitro-1-thioxo-1,3-dihydro-isoindol-2-yl)-6-thioxo-piperidin-2-one] | μM-mM | μM-mM | μM-mM | 248 to 250 °C

From US20090298882A1, “THIOXOISOINDOLINE COMPOUNDS AND COMPOSITIONS COMPRISING AND METHODS OF USING THE SAME” (priority 2008, published 2009)
